Experimental data taken from US20200010910A1, “Cytotoxic Chemotherapy-Based Predictive Assays for Acute Myeloid Leukemia” (The Regents of The University of California, priority 2017, published 2020).

Assays:
[1] = sterile solution in water
Experimental: Radiolabeled carboplatin containing C^14 carbon atoms in the cyclobutane dicarboxylic acid group was formulated for human use as a sterile, pyrogen free solution at 5 mg/mL in water.

[2] = carboplatin plasma pharmacokinetics in mice; format: in vivo, Balb/c mice
Experimental: Balb/c mice received a bolus [^14C]carboplatin tail vein injection at microdose (0.373 mg/kg; 50,000 dpm/gm) or therapeutic dose (37.3 mg/kg; 50,000 dpm/gm). Mice were sacrificed in triplicate at 15 min, 1 h, 2 h, 8 h and 24 h. Concentrations of carboplatin in plasma were measured by liquid scintillation counting at each time point.

H727 = test: MTT assay IC50; format: cell-based, human
Experimental: (§1) Six non-small cell lung cancer (NSCLC) cell lines were treated in culture with [^14C]carboplatin. Carboplatin-DNA monoadduct levels over time were determined by measuring ^14C content in genomic DNA with accelerator mass spectrometry (AMS). Cellular sensitivity to carboplatin and cisplatin was analyzed by the MTT assay (Henderson et al., International Journal of Cancer 2011).
(§2) Human NSCLC cell lines H23, H460, H727, HCC827, H1975, and A549 were purchased from ATCC and were cultured with the recommended medium. The MTT assay was performed as previously reported to determine the drug concentration required to inhibit cell growth by 50% (IC50) of cisplatin and carboplatin. [^14C]Carboplatin (at 53 mCi/mmol) was mixed with unlabeled carboplatin to achieve the specific activities required for microdoses and therapeutic doses. Table 1 lists the six NSCLC cell lines and summarizes their IC50 characteristics, induced carboplatin-DNA monoadducts when treated with [^14C]carboplatin, and p and r^2 values for correlation analysis to the IC50 concentrations.

H1975 = test: MTT assay IC50; format: cell-based, human
Experimental: as §1, §2

H23 = test: MTT assay IC50; format: cell-based, human
Experimental: as §1, §2

HCC827 = test: MTT assay IC50; format: cell-based, human
Experimental: as §1, §2

A549 = test: MTT assay IC50; format: cell-based, human
Experimental: as §1, §2

H460 = test: MTT assay IC50; format: cell-based, human
Experimental: as §1, §2

[3] = system: six breast cancer cell lines; test: carboplatin-DNA monoadducts by AMS in cell culture; format: cell-based, human; conditions: 4 hours exposure, range over cell lines and time points
Experimental: Cells were seeded in 60-mm dishes at a density of 1×10^6 cells/dish and allowed to attach overnight in a 37° C. humidified atmosphere containing 5% C02. Cells were treated with 1 μM (a relevant microdose concentration) and 100 μM (a therapeutically relevant concentration) carboplatin. Both the microdose and the therapeutic cell culture treatments included 0.3 μM of [^14C]carboplatin at a final concentration 50,000 dpm/ml for 4 hours, followed by washing and incubation in culture medium free of carboplatin. […] The number of carboplatin-DNA monoadducts was calculated based on the ^14C content in genomic DNA as measured by AMS. […] The concentration of the DNA was determined by its absorption at 260 nm using a Nanodrop spectrophotometer, and then the samples were stored frozen at −80° C. For AMS analysis, a DNA sample was thawed, mixed well by vortexing, and 1-10 μg of DNA was then submitted for AMS analysis, which includes the addition of 1.0 mg of tributyrin as a carrier, followed by combustion to CO2 and reduction to graphite according to published protocols (Ognibene, Ted J., et al. “A high-throughput method for the conversion of CO2 obtained from biochemical samples to graphite in septa-sealed vials for quantification of 14C via accelerator mass spectrometry.” Analytical chemistry 75.9 (2003): 2192-2196). […]

**Q.** For `N.N.O=C([O-])C1(C(=O)[O-])CCC1.[Pt+2]` [carboplatin], which “loss of radiopurity per year” value ([1]; storage at −20° C.) is on record?
**A.** < 2%

**Q.** And the stability to freeze/thaw ([1]; upon freezing)?
**A.** no observed precipitation

**Q.** What about the Cmax ([2]; microdose 0.373 mg/kg) of the same molecule?
**A.** 1 µM

**Q.** And the “initial T1/2” value ([2]; microdose 0.373 mg/kg bolus tail vein)?
**A.** 50 min

**Q.** What about the Cmax ([2]; therapeutic dose 37.3 mg/kg) of the same molecule?
**A.** 127 ± 30 µM

**Q.** And the “initial T1/2” value ([2]; therapeutic dose 37.3 mg/kg bolus tail vein)?
**A.** 50 min

**Q.** What about the IC50 (H727) of the same molecule?
**A.** 53.5 ± 3.65 µM

**Q.** What about the IC50 (H1975) of the same molecule?
**A.** 88.5 ± 30.8 µM

**Q.** And the IC50 (H23)?
**A.** 19.4 ± 8.65 µM

**Q.** What about the IC50 (HCC827) of the same molecule?
**A.** 86.2 ± 10.9 µM

**Q.** What about the IC50 (A549) of the same molecule?
**A.** 196 µM

**Q.** What about the IC50 (H460) of the same molecule?
**A.** 22 ± 5.23 µM

**Q.** And the “DNA damage concentrations (carboplatin-DNA monoadducts)” value ([3]; microdose 1 μM carboplatin)?
**A.** 1-15 monoadducts per 10^8 nt

**Q.** And the “DNA damage concentrations (carboplatin-DNA monoadducts)” value ([3]; therapeutic dose 100 μM carboplatin)?
**A.** 100-1500 monoadducts per 10^8 nt
